From the supplement of paper PMC10307832

How the values were obtained:
Experiment in all cases: relative viability (nuclei count vs DMSO), 5 days (fraction); higher = more cells survive
kb NB 142-70 + Foretinib = compound: C1CSC2=C(C(=O)N1)SC3=C2C=C(C=C3)O [kb NB 142-70] + COc1cc2c(Oc3ccc(NC(=O)C4(C(=O)Nc5ccc(F)cc5)CC4)cc3F)ccnc2cc1OCCCN1CCOCC1 [Foretinib] (partner 0.25 µM)
Summary of the method: (§1)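 Medians of duplicate plates are given as relative viability. That measure is the nuclei count in treated wells divided by the count in vehicle wells. Counts were taken on 4× images of lung cancer cell lines in 1536-well plates, 5 days after pin-tool dosing the day after seeding with one drug alone or a fixed anchor-drug dose plus five library-drug doses (not always all listed) in √10 steps.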

[1] = compound: NCC(=O)Nc1ccc(-n2nc(C(F)(F)F)cc2-c2ccc3c(ccc4ccccc43)c2)cc1 + CC(=O)c1c(C)c2cnc(Nc3ccc(N4CCNCC4)cn3)nc2n(C2CCCC2)c1=O [Palbociclib] (partner 0.5 µM)
Summary of the method: as §1

[2] = compound: NCC(=O)Nc1ccc(-n2nc(C(F)(F)F)cc2-c2ccc3c(ccc4ccccc43)c2)cc1 + CC1(C)CCC(c2ccc(Cl)cc2)=C(CN2CCN(c3ccc(C(=O)NS(=O)(=O)c4ccc(N[C@H](CCN5CCOCC5)CSc5ccccc5)c(S(=O)(=O)C(F)(F)F)c4)cc3)CC2)C1 [Navitoclax] (partner 0.5 µM)
Summary of the method: as §1

[3] = compound: NCC(=O)Nc1ccc(-n2nc(C(F)(F)F)cc2-c2ccc3c(ccc4ccccc43)c2)cc1 + Nc1ncn([C@H]2C[C@H](O)[C@@H](CO)O2)c(=O)n1 [Decitabine] (partner 2 µM)
Summary of the method: as §1

Row | Cell Line | relative viability (kb NB 142-70 + Foretinib; first compound 0.1 µM) | relative viability (kb NB 142-70 + Foretinib; first compound 1 µM) | relative viability (kb NB 142-70 + Foretinib; first compound 3.162 µM) | relative viability ([1]; first compound 0.02 µM) | relative viability ([1]; first compound 0.06325 µM) | relative viability ([1]; first compound 0.2 µM) | relative viability ([1]; first compound 0.6325 µM) | relative viability ([1]; first compound 2 µM) | relative viability ([2]; first compound 0.02 µM) | relative viability ([2]; first compound 0.06325 µM) | relative viability ([2]; first compound 0.2 µM) | relative viability ([2]; first compound 0.6325 µM) | relative viability ([2]; first compound 2 µM) | relative viability ([3]; first compound 0.02 µM) | relative viability ([3]; first compound 0.06325 µM) | relative viability ([3]; first compound 0.2 µM) | relative viability ([3]; first compound 0.6325 µM) | relative viability ([3]; first compound 2 µM)
1 | NCI-H23 | 1.06 | 0.819 | 0.642 | 0.493 | 0.548 | 0.535 | 0.507 | 0.553 | 0.821 | 0.847 | 0.801 | 0.903 | 0.855 | 0.32 | 0.357 | 0.317 | 0.311 | 0.324
2 | NCI-H322M | 0.891 | 1.04 | 1.04 | 0.51 | 0.502 | 0.388 | 0.505 | 0.493 | 1.18 | 1.18 | 1.34 | 1.18 | 1.1 | 0.723 | 0.732 | 0.716 | 0.637 | 0.724
3 | NCI-H441 | 0.939 | 1.15 | 0.459 | 0.242 | 0.258 | 0.265 | 0.228 | 0.25 | 0.521 | 0.577 | 0.654 | 0.627 | 0.539 | 0.274 | 0.276 | 0.225 | 0.266 | 0.248
4 | NCI-H460 | 0.951 | 1.07 | 0.985 | 0.143 | 0.2 | 0.251 | 0.171 | 0.2 | 1.17 | 1.11 | 1.13 | 1.07 | 1.06 | 0.486 | 0.525 | 0.478 | 0.479 | 0.366
5 | NCI-H520 | 0.718 | 0.866 | 0.655 | 0.222 | 0.224 | 0.24 | 0.193 | 0.258 | 0.979 | 1.17 | 1.34 | 1.05 | 1.08 | 0.562 | 0.546 | 0.505 | 0.449 | 0.587
6 | NCI-H647 | 1.28 | 1.28 | 1.24 | 0.431 | 0.385 | 0.564 | 0.294 | 0.402 | 1.02 | 1.02 | 1.23 | 1.03 | 1.01 | 0.44 | 0.436 | 0.423 | 0.436 | 0.301
7 | NCI-H727 | 1.06 | 0.969 | 1.15 | 0.674 | 0.795 | 0.56 | 0.72 | 0.682 | 0.464 | 0.568 | 0.52 | 0.474 | 0.469 | 0.941 | 0.647 | 0.869 | 0.874 | 0.812
8 | NCI-H838 | 1.02 | 1.06 | 1.04 | 0.228 | 0.237 | 0.224 | 0.192 | 0.213 | 1.19 | 1.12 | 1.34 | 1 | 1 | 0.489 | 0.494 | 0.504 | 0.441 | 0.335
9 | NCI-H1355 | 0.946 | 1.06 | 0.975 | 0.426 | 0.43 | 0.393 | 0.408 | 0.405 | 0.921 | 0.895 | 1 | 0.999 | 0.978 | 0.371 | 0.362 | 0.403 | 0.408 | 0.347
10 | NCI-H1395 | 0.942 | 1.04 | 0.946 | 0.702 | 0.678 | 0.617 | 0.621 | 0.614 | 1.12 | 1.16 | 1.16 | 1.11 | 1.22 | 0.667 | 0.735 | 0.673 | 0.692 | 0.738
11 | NCI-H1437 | 1.28 | 1.3 | 1.22 | 0.331 | 0.328 | 0.3 | 0.341 | 0.307 | 1.08 | 1.12 | 1.11 | 1.12 | 1.11 | 0.563 | 0.576 | 0.634 | 0.616 | 0.547
12 | NCI-H1650 | 1.44 | 1.23 | 1.18 | 0.377 | 0.37 | 0.225 | 0.319 | 0.343 | 1.25 | 1.5 | 1.32 | 1.1 | 1.31 | 0.381 | 0.459 | 0.431 | 0.355 | 0.508
13 | NCI-H1651 | 0.802 | 0.683 | 0.618 | 0.508 | 0.555 | 0.497 | 0.539 | 0.541 | 1.06 | 1.11 | 1.13 | 0.998 | 1.01 | 0.594 | 0.351 | 0.591 | 0.619 | 0.613
14 | NCI-H1666 | 0.993 | 1.02 | 0.814 | 0.658 | 0.677 | 0.69 | 0.616 | 0.624 | 1.14 | 0.788 | 1.11 | 0.913 | 1.01 | 0.771 | 0.567 | 0.778 | 0.746 | 0.652
